Test results reported in patent US6348309B1, “Process for inactivating viruses in blood and blood products” (priority 1989, dated 2002).
Marks after values point to notes of the source that are not given here.

Assays:
Assay type in all cases: cell-based
adenovirus = assay: Photodynamic treatment of adenovirus with pre-incubation in the dark, titrated on FL cells (Example 7); settings: MB 1 μM; for Virus Titer: illumination 30 min 150,000 Lux
Hog Cholera = tested on: Hog Cholera
HIV-2 = assay: MB/light virus inactivation in plasma (Example 6, Table VI); settings: illumination 15 min; * production conditions, plastic bag 250-300 ml plasma

## CN(C)c1ccc2nc3ccc(=[N+](C)C)cc-3sc2c1 [MB, methylene blue]
adenovirus; pre-incubation 0 h
  Virus Titer: 6.0 log10 TCID50
adenovirus; pre-incubation 1 h
  Virus Titer: 5.5 log10 TCID50
adenovirus; pre-incubation 4 h
  Virus Titer: 6.0 log10 TCID50
adenovirus; pre-incubation 24 h
  Virus Titer: 6.0 log10 TCID50
adenovirus; regardless of the pre-incubation time
  change in viral infectivity: no change in viral infectivity
Hog Cholera
  Inactivation Rate: >5.92 * log10 TCID50
HIV-2
  Inactivation Rate: >3.81 * log10 TCID50
